Measured values: patent US12263248B2, “Compounds and compositions for intracellular delivery of therapeutic agents” (ModernaTX, Inc., priority 2018, dated 2025)

Legend:
luciferase (Luc) mRNA [1] = assay: Luc expression in liver, lung, spleen and femur 6 hours after intravenous administration; format: in vivo; conditions: mice, 0.5 mpk; for Total Flux Liver / Total Flux Lung / Total Flux Spleen: intravenous
In short: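 LNP-formulated mRNA given IV to mice (n=3) at 0.5 mpk; at 6 h, bioluminescence imaged ex vivo 15 min after IP D-luciferin (15 mg/mL, 200 μL), organs imaged within 25 min. Values are total flux by region of interest.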

luciferase (Luc) mRNA [2] = assay: Luc expression, whole body bioluminescence after intravenous administration to mice; format: in vivo; conditions: for i.v. Lipid/MC3 0.5 mpk, Luc, 6 h: Table 3B; for Novel lipid/MC3 expression ratio, 6 hr. time point, i.v. / Novel lipid/MC3 ratio, 6 hr. timepoint, i.v.: luciferase, intravenous; for Novel lipid/MC3 expression ratio, 6 hr. time point, i.v.: relative to MC3 formulation; for Total Flux 3 hours / Total Flux 6 hours / Total Flux 24 hours: Luc mRNA; for Fold increase in total body Luc Flux relative to MC3 at 6 h: Table 3A; for flux measured at 6 h relative to the MC3 formulation: in words; for Novel lipid/MC3 ratio, 6 hr. timepoint, i.v.: relative to MC3, Table 3G
In short: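 Luc mRNA nanoparticle formulations given intravenously to mice (n=6) at 0.5 mg/kg; whole-body bioluminescence imaged at 3, 6 and 24 h. CD-1 mice received IP D-luciferin (200 μL of 15 mg/mL) 15 min before imaging; total flux quantified by region of interest.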

luciferase (Luc) mRNA [3] = assay: Luc expression (total flux) after intramuscular administration; format: in vivo, mice; conditions: for i.m. Lipid/MC3 0.01 mpk, Luc, 6 h: Table 3B; for Total flux (p/s) 0.01 mpk Dose: Table 5B; for Novel lipid/MC3 expression ratio, 6 hr. time point, i.m. Luc / AUC (p/s * h) / Lipid/MC3 AUC: intramuscular; for Novel lipid/MC3 expression ratio, 6 hr. time point, i.m. Luc: relative to MC3 formulation; for AUC (p/s * h) / Lipid/MC3 AUC: Table 3H, Luc
In short: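 Mice given a single intramuscular dose of lipid nanoparticle formulations carrying modified Luc mRNA, alone or with H10 mRNA, at 0.001 or 0.01 mpk total. Luciferase expression recorded as total flux.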

[4] = 6 hours after intramuscular administration, 0.01 mpk

| SMILES | Total Flux Liver (luciferase (Luc) mRNA [1]) | Total Flux Lung (luciferase (Luc) mRNA [1]) | Total Flux Spleen (luciferase (Luc) mRNA [1]) | Novel lipid/MC3 expression ratio, 6 hr. time point, i.v. (luciferase (Luc) mRNA [2]) | Total Flux 3 hours (luciferase (Luc) mRNA [2]; mice, i.v., 0.5 mg/kg) | Total Flux 6 hours (luciferase (Luc) mRNA [2]; mice, i.v., 0.5 mg/kg) | Total Flux 24 hours (luciferase (Luc) mRNA [2]; mice, i.v., 0.5 mg/kg) | Total flux (p/s) 0.01 mpk Dose (luciferase (Luc) mRNA [3]; [4]) [p/s] | Novel lipid/MC3 expression ratio, 6 hr. time point, i.m. Luc (luciferase (Luc) mRNA [3]) | AUC (p/s * h) (luciferase (Luc) mRNA [3]) | Lipid/MC3 AUC (luciferase (Luc) mRNA [3]) | other results |
| --- | --- | --- | --- | --- | --- | --- | --- | --- | --- | --- | --- | --- |
| CCCCCCCCCOC(=O)CCCCCCCN(CCCCCCCC(=O)OC(CCCCCCCC)CCCCCCCC)CCCNC(=S)N(C)C [Compound 111, Heptadecan-9-yl 8-((3-(3,3-dimethylthioureido)propyl)(8-(nonyloxy)-8-oxooctyl)amino)octanoate] | 4.83E+09 | 2.57E+07 | 2.44E+08 | 2.59 | 1.89E+10 | 3.57E+10 | 8.86E+08 | 1.58E+08 | 4.88 | – | – | i.v. Lipid/MC3 0.5 mpk, Luc, 6 h (luciferase (Luc) mRNA [2]; i.v.): 2.6; i.m. Lipid/MC3 0.01 mpk, Luc, 6 h (luciferase (Luc) mRNA [3]; 0.01 mpk): 4.9 |
| CCCCCCCCCOC(=O)CCCCCCCN(CCCCCCCC(=O)OC(CCCCCCCC)CCCCCCCC)CCCNC(=S)NC [Compound 113, Heptadecan-9-yl 8-((3-(3-methylthioureido)propyl)(8-(nonyloxy)-8-oxooctyl)amino)octanoate] | 1.11E+09 | 5.55E+06 | 5.22E+07 | – | 5.16E+09 | 8.09E+09 | 1.30E+08 | – | 1.58 | 1.01E+09 | 1.71 | – |
| CCCCCCCCC(CCC)OC(=O)CCCCCCCN(CCO)CCCCCCCC(=O)OC(CCCCCCCC)CCCCCCCC (centres unmarked) [Compound 50, dodecan-4-yl 8-((8-(heptadecan-9-yloxy)-8-oxooctyl)(2-hydroxyethyl)amino)octanoate] | 6.30E+09 | 2.81E+07 | 1.14E+08 | – | 3.81E+10 | 7.49E+10 | 5.02E+08 | – | – | – | – | Fold increase in total body Luc Flux relative to MC3 at 6 h (luciferase (Luc) mRNA [2]; i.v. administration): 6.81; flux measured at 6 h relative to the MC3 formulation (luciferase (Luc) mRNA [2]; i.v. administration): higher flux than MC3 formulations; Total flux, 0.001 mpk Dose (luciferase (Luc) mRNA [3]; 6 hours after intramuscular administration, 0.001 mpk, Luc mRNA and H10 mRNA): 6.56E+05 p/s; Total flux, 0.01 mpk Dose (luciferase (Luc) mRNA [3]; 6 hours after intramuscular administration, 0.01 mpk, Luc mRNA and H10 mRNA): 1.13E+07 p/s |
| CCCCCCCCC(CC)OC(=O)CCCN(CCO)CCCCCCCC(=O)OC(CCCCCCCC)CCCCCCCC (centres unmarked) [Compound 72, Heptadecan-9-yl 8-((2-hydroxyethyl)(4-oxo-4-(undecan-3-yloxy)butyl)amino)octanoate] | 7.97E+08 | 1.05E+07 | 6.40E+06 | 1.52 | 1.73E+10 | 4.07E+10 | 7.12E+08 | – | 1.03 | 6.48E+08 | 1.10 | Novel lipid/MC3 ratio, 6 hr. timepoint, i.v. (luciferase (Luc) mRNA [2]): 1.52 |
| CCCCCCCCC(C)OC(=O)CCCCCN(CCO)CCCCCCCC(=O)OC(CCCCCCCC)CCCCCCCC (centres unmarked) [Compound 122, Heptadecan-9-yl 8-((6-(decan-2-yloxy)-6-oxohexyl)(2-hydroxyethyl)amino)octanoate] | 2.63E+09 | 2.77E+07 | 1.56E+07 | 3.23 | 3.64E+10 | 8.64E+10 | 1.95E+09 | 9.19E+07 | 2.84 | – | – | Novel lipid/MC3 ratio, 6 hr. timepoint, i.v. (luciferase (Luc) mRNA [2]): 3.23 |
| CCCCCCCCC(CCCCCCCC)OC(=O)CCCCCCCN(CCO)CCCCCC(=O)OC(CCCCCCCC)C1CC1 (centres unmarked) [Compound 128, Heptadecan-9-yl 8-((6-((1-cyclopropylnonyl)oxy)-6-oxohexyl)(2-hydroxyethyl)amino)octanoate] | 5.98E+09 | 2.16E+07 | 7.09E+07 | 4.05 | 1.04E+11 | 8.99E+10 | 1.00E+09 | – | – | 8.59E+08 | 1.46 | Fold increase in total body Luc Flux relative to MC3 at 6 h (luciferase (Luc) mRNA [2]; i.v. administration): 4.05; total flux at 3 hours (luciferase (Luc) mRNA [2]; mice, i.v., 0.5 mg/kg, comparison in words): highest |
| CCCCCCCCC(CC)OC(=O)CCCCCCCN(CCO)CCCCCCCC(=O)OC(CCCCCCCC)CCCCCCCC (centres unmarked) [Compound 49, heptadecan-9-yl 8-((2-hydroxyethyl)(8-oxo-8-(undecan-3-yloxy)octyl)amino)octanoate] | 5.68E+09 | 2.52E+07 | 1.87E+08 | 9.81 | 4.48E+10 | 1.08E+11 | 1.24E+09 | – | 12.99 | 7.54E+09 | 12.82 | Fold increase in total body Luc Flux relative to MC3 at 6 h (luciferase (Luc) mRNA [2]; i.v. administration): 9.81; flux measured at 6 h relative to the MC3 formulation (luciferase (Luc) mRNA [2]; i.v. administration): ten times higher |
| CCCCCCCCCOC(=O)CCCCCCCN(CCCCCCCC(=O)OC(CCCCCCCC)CCCCCCCC)CCCNC(C)=O [Compound 108, Heptadecan-9-yl 8-((3-acetamidopropyl)(8-(nonyloxy)-8-oxooctyl)amino)octanoate] | 4.63E+08 | 9.81E+06 | 7.82E+08 | – | 5.04E+09 | 5.53E+09 | 1.50E+08 | 4.60E+08 | 14.2 | – | – | Flux in the spleen (luciferase (Luc) mRNA [1]; i.v., in words): highest; i.v. Lipid/MC3 0.5 mpk, Luc, 6 h (luciferase (Luc) mRNA [2]; i.v.): 0.4; Luc expression upon intramuscular administration (luciferase (Luc) mRNA [3]; 0.01 mpk, in words): highest expression; i.m. Lipid/MC3 0.01 mpk, Luc, 6 h (luciferase (Luc) mRNA [3]; 0.01 mpk): 14.2; flux measured at 6 h relative to the MC3 formulation (luciferase (Luc) mRNA [3]; intramuscular administration (i.m.), in words): fourteen |
| CCCCCCCCCOC(=O)CCCCCCCN(CCCCCCCC(=O)OC(CCCCCCCC)CCCCCCCC)CCCNC(=O)NC [Compound 112, Heptadecan-9-yl 8-((3-(3-methylureido)propyl)(8-(nonyloxy)-8-oxooctyl)amino)octanoate] | 1.48E+08 | 1.83E+06 | 2.75E+07 | – | 9.69E+08 | 1.04E+09 | 2.75E+07 | 9.47E+07 | 2.93 | – | – | – |
| CCCCCCCCC(CC)OC(=O)CCCCCN(CCO)CCCCCCCC(=O)OC(CCCCCCCC)CCCCCCCC (centres unmarked) [Compound 75, Heptadecan-9-yl 8-((2-hydroxyethyl)(6-oxo-6-(undecan-3-yloxy)hexyl)amino)octanoate] | 1.45E+09 | 3.92E+06 | 5.66E+06 | 3.29 | 3.51E+10 | 8.80E+10 | 2.13E+09 | – | 1.22 | 1.29E+09 | 2.20 | Novel lipid/MC3 ratio, 6 hr. timepoint, i.v. (luciferase (Luc) mRNA [2]): 3.29 |
| CCCCCCCCCOC(=O)CCCCCCCN(CCCCCCCC(=O)OC(CCCCCCCC)CCCCCCCC)CCCNS(C)(=O)=O [Compound 109, Heptadecan-9-yl 8-((3-(methylsulfonamido)propyl)(8-(nonyloxy)-8-oxooctyl)amino)octanoate] | 8.17E+08 | 6.03E+06 | 4.81E+07 | – | 3.82E+09 | 4.88E+09 | 8.06E+07 | 1.18E+08 | 3.65 | – | – | i.v. Lipid/MC3 0.5 mpk, Luc, 6 h (luciferase (Luc) mRNA [2]; i.v.): 0.3; i.m. Lipid/MC3 0.01 mpk, Luc, 6 h (luciferase (Luc) mRNA [3]; 0.01 mpk): 3.6 |
| CCCCCCCCCOC(=O)CCCCCCCN(CCO)CCCCCCCCCC(=O)OC(CCCCCC)CCCCCC [Compound 147, Tridecan-7-yl 10-((2-hydroxyethyl)(8-(nonyloxy)-8-oxooctyl)amino)decanoate] | 5.24E+09 | 6.73E+06 | 8.57E+07 | – | 3.24E+10 | 4.87E+10 | 3.32E+08 | – | – | – | – | 6 h Lipid/MC3 Avg. Luc Expression (luciferase (Luc) mRNA [2]; Table 3C, i.v. administration): 6.68; Fold increase AUC Lipid/MC3 (luciferase (Luc) mRNA [2]; Table 3C, i.v. administration): 6.83; AUC (h * p/s) (luciferase (Luc) mRNA [2]; Table 3C, i.v. administration, Luc): 5.63E+11 h * p/s |
| CCCC/C=C\CCC(CC/C=C\CCCC)OC(=O)CCCCCCCN(CCO)CCCCCCCC(=O)OCCCCCCCCC [Compound 60, (5Z,12Z)-Heptadeca-5,12-dien-9-yl 8-((2-hydroxyethyl)(8-(nonyloxy)-8-oxooctyl)amino)octanoate] | 1.54E+09 | 6.25E+06 | 7.12E+06 | 3.37 | 7.91E+10 | 9.04E+10 | 2.90E+09 | 9.48E+07 | 2.93 | – | – | – |
